Assay results reported in patent US20260355328A1, “A complex comprising a cargo and a targeting moiety binding intelectin-1” (Stichting Radboud universitair medisch centrum, priority 2022, published 2026).
One block for each substance: values may come before it.

How the values were obtained:
[1] = system: mGEnC; test: Uptake in multiple cell lines (Table 2): mGEnC; assay type: cell-based; details: fluorescein-labeled peptide, confocal microscopy, mGEnC (mouse)
Experimental: (§1) Conditionally immortalized mouse glomerular endothelial cells (mGEnC) were cultured as previously described (Rops et al. Kidney Int. 2004; 66 (6): 2193-201). HeLa cells were employed as a frequently used model cell line and were cultured in DMEM/F12 medium containing 10% fetal calf serum (FCS). For studying uptake, cells were incubated in their respective medium with 10% FCS containing fluorescein-labelled peptides at the indicated concentrations for 20 minutes at 37 °C. In some cases, cells were activated for 16 hours with 10 ng/ml mouse TNFα (Sigma), or co-incubated with Alexa Fluor 633-labeled transferrin (Invitrogen Molecular Probes). Subsequently, cells were washed with PBS and analysed using confocal laser-scanning microscopy on a TCS SP5 confocal microscope (Leica Microsystems), or detached by trypsin/EDTA and analysed on a FACSCalibur Flow cytometer (BD Biosciences) by measuring 20,000 cells.
(§2) Conditionally immortalized mouse glomerular endothelial cells (mGEnC) were cultured as previously described (Rops et al. Kidney Int. 2004; 66 (6): 2193-201). Cells were incubated in their respective medium with 10% FCS containing fluorescein-labelled peptides at 5 μM for 20 minutes at 37 °C. In some cases, cells were activated for 16 hours with 10 ng/ml mouse TNFα (Sigma), or co-incubated with 100 μg/ml Alexa Fluor 633-labeled transferrin (Invitrogen Molecular Probes). Pre-treatment with ITLN-1 or control siPool siRNA (siTools Biotech) was performed according to the manufacturer's protocol. Subsequently, cells were detached with trypsin/EDTA and analysed by flow cytometry on a FACSCalibur Flow cytometer (BD Biosciences). For immunostaining, cells or 5-μm cryosections of mouse kidney were fixed for 10 minutes with 4% paraformaldehyde, and in the indicated cases permeabilized with 0.3% Triton X-100 in PBS. […] Cells and cryosections were analyzed by confocal laser-Scanning microscopy was performed using a TCS SP5 confocal microscope (Leica Microsystems).

[2] = Biodistribution of 111In-DOTA-labelled hLF after intravenous injection in healthy mice; assay type: in vivo, C57BI/6 mice; details: i.v.
Experimental: Female and male 10-12-weeks-old C57BI/6 mice (Charles River) were injected via the tail vein with 50 μl of 200 μM 111 In-DOTA-labelled hLF peptide. Assuming a blood volume of 1.2 ml this would theoretically result in a concentration of ~8.5 μM in the circulation. Urine, blood and organs were collected 4 hours after injection, and radioactivity was measured in a gamma-counter. The percentage injected dose per gram of tissue (% ID/gram) was calculated for each tissue along with % of the absorbed dose.

[3] = molecular target: T1, ITLN-1 (Mus musculus, UniProt O88310); test: Uptake by mGEnC after downregulation of ITLN-1 with siRNA; assay type: cell-based; details: peptides at 5 μM, FIG. 2E
T1 construct: ITLN-1 siRNA versus control siRNA
Experimental: (§3) Conditionally immortalized mouse glomerular endothelial cells (mGEnC) were cultured as previously described (Rops et al. Kidney Int. 2004; 66 (6): 2193-201). Cells were incubated in their respective medium with 10% FCS containing fluorescein-labelled peptides at 5 μM for 20 minutes at 37 °C. In some cases, cells were activated for 16 hours with 10 ng/ml mouse TNFα (Sigma), or co-incubated with 100 μg/ml Alexa Fluor 633-labeled transferrin (Invitrogen Molecular Probes). Pre-treatment with ITLN-1 or control siPool siRNA (siTools Biotech) was performed according to the manufacturer's protocol. Subsequently, cells were detached with trypsin/EDTA and analysed by flow cytometry on a FACSCalibur Flow cytometer (BD Biosciences). For immunostaining, cells or 5-μm cryosections of mouse kidney were fixed for 10 minutes with 4% paraformaldehyde, and in the indicated cases permeabilized with 0.3% Triton X-100 in PBS. Subsequently, cells and cryosections were stained for 1 hour with anti-intelectin-1 (R&D Systems) or anti-LRP-1 (Abcam) antibodies, and after washing incubated for 1 hour with the appropriate Alexa Fluor-labelled secondary antibody (Invitrogen Molecular Probes). Cells and cryosections were analyzed by confocal laser-Scanning microscopy was performed using a TCS SP5 confocal microscope (Leica Microsystems).

[4] = system: HUVEC; test: Uptake in multiple cell lines (Table 2): HUVEC; assay type: cell-based; details: fluorescein-labeled peptide, confocal microscopy, HUVEC (human)
[5] = system: Podocytes; test: Uptake in multiple cell lines (Table 2): Podocytes; assay type: cell-based; details: fluorescein-labeled peptide, confocal microscopy, Podocytes (mouse)
Experimental: as §1, §2

[6] = system: HeLa cells; test: Uptake of fluorescein-labelled peptides by HeLa cells (flow cytometry); assay type: cell-based, human; details: FIG. 1B
Experimental: as §1

[7] = system: mGEnC; test: Intracellular localization / co-localization with transferrin in mGEnC (confocal microscopy); assay type: cell-based, mouse; details: FIG. 2C
Experimental: as §1
Conditionally immortalized mouse glomerular endothelial cells (mGEnC) were cultured as previously described (Rops et al. Kidney Int. 2004; 66 (6): 2193-201). […] Subsequently, cells were detached with trypsin/EDTA and analysed by flow cytometry on a FACSCalibur Flow cytometer (BD Biosciences). […] Cells and cryosections were analyzed by confocal laser-Scanning microscopy was performed using a TCS SP5 confocal microscope (Leica Microsystems).

[8] = Biodistribution of Cy5.5-hLF in LPS-induced inflammation mouse model; assay type: in vivo, C57BI/6 mice
Experimental: At the start, 8- to 10-week-old C57BI/6 mice (Charles River) received an intraperitoneal injection with either 100 μl of 2 mg/kg LPS in 5% glucose solution, or only 5% glucose solution. After 24 hours, mice were injected with 50 μl of 200 μM Cy5.5-labelled peptide. Assuming a blood volume of 1.2 ml this would theoretically result in a concentration of ~8.5 μM in the circulation. After 4 hours, organs were perfused with phosphate buffer, followed by 4% PFA. Organs were removed and peptide distribution was analysed using the In Vivo Imaging System (IVIS; Perkin Elmer). Organs were then fixed by overnight incubation in 4% PFA, followed by overnight incubation in 30% sucrose. Subsequently, organs were frozen for analysis by confocal laser-Scanning microscopy using a TCS SP5 confocal microscope (Leica Microsystems). Glomerular and tubular regions were selected in microscopical pictures from which the mean fluorescence intensity was determined by ImageJ software.

[9] = system: hGEnC; test: Uptake in multiple cell lines (Table 2): hGEnC; assay type: cell-based; details: fluorescein-labeled peptide, confocal microscopy, hGEnC (human)
[10] = system: heparan sulphate proteoglycans (HSPGs); details: HeLa cells, literature; cited from earlier work
[11] = Proteolytic breakdown and serum protein binding of the peptides; assay type: in vitro ADME
[12] = system: HeLa; test: Uptake in multiple cell lines (Table 2): HeLa; assay type: cell-based; details: fluorescein-labeled peptide, confocal microscopy, HeLa (human)
Experimental: as §1, §2

[13] = system: mouse glomerular endothelial cells (mGEnC); test: Uptake of fluorescein-labelled peptides by mGEnC (flow cytometry); assay type: cell-based; details: different concentrations, 20 minutes at 37 °C, FIG. 1A
Experimental: as §1

[14] = system: mGEnC treated with TNFα; test: Uptake by mGEnC after activation with TNFα; assay type: cell-based; details: 10 ng/ml mouse TNFα 16 hours
Experimental: as §1, §3

[15] = system: EOMA; test: Uptake in multiple cell lines (Table 2): EOMA; assay type: cell-based; details: fluorescein-labeled peptide, confocal microscopy, EOMA (mouse)
[16] = system: heparan sulphate on mGEnC; test: Peptide uptake by mGEnC after removal of heparan sulphate (heparinases); assay type: cell-based, mouse; details: 5 μM, FIG. 1D
Experimental: (D) Digestion of heparan sulphate from the cell surface has a limited effect on the uptake of lactoferrin-derived peptides (5 μM). Percentage of uptake for heparan sulphate-cleaved compared to undigested cells is shown.
as §1
In order to further substantiate that uptake of hLF occurred by a mechanism different of the one typically observed for CPPs, we addressed the role of heparan sulphate proteoglycans (HSPGs).

[17] = molecular target: T1, ITLN-1; test: ITLN-1 protein expression in mGEnC; assay type: cell-based; details: 10 ng/ml TNFα, FIG. 2B
Experimental: as §3

[18] = Biodistribution of full-length lactoferrin, lactoferricin and hLF-6 in LPS-challenged mice (IVIS); assay type: in vivo; details: fluorescent label, i.v., 2 h
Experimental: Lactoferrin and lactoferricin are cloned in an expression plasmid containing the C-terminal Sortase-sequence protein-LPETG-HHHHHH. LPETGHHHHHH is SEQ ID NO: 98. Next, the protein is expressed overnight in E. coli and purified from sonicated bacterial cell lysates by Ni-NTA beads using 400 mM imidazole to elute the proteins. After overnight dialysis, full-length lactoferrin and hLF-6 are labelled by means of a Sortase exchange reaction on the C-terminus with a fluorescent dye (Alexa647 or Cy5.5) for 2 h at 4 °C using a fluorescently labelled donor peptide (formula:biotin-GSSG-LPETG-label or biotin-GSSG-LPETG-PEG40k-label) as substrate GSSGLPETG is SEQ ID NO: 99. Excess donor peptide is removed by means of streptavidin binding of the biotin tag on the N-terminus of the donor peptide. Next, the purified labelled protein/peptide is injected into LPS-challenged mice via intravenous injection in the tail vein. Mice are sacrificed after 2 h, and organs harvested for imaging by IVIS. Biodistribution is quantified for each organ, and relative distribution is shown.

[19] = system: proteoglycans on endothelial and epithelial cells; details: literature; cited from earlier work

T1 sequence (O88310 19-298): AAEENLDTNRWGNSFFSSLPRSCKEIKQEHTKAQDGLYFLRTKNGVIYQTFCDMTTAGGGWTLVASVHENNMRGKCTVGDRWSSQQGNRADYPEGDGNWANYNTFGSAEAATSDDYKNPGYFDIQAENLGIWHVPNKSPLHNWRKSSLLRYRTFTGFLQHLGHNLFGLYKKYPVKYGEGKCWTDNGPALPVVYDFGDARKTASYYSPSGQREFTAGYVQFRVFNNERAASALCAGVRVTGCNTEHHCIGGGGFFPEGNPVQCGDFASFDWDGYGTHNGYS

uptake after ITLN-1 siRNA compared to control siRNA [3]: reduced uptake
Substance: KCFQWQRNMRKVRGPPVSCIKR [hLF, lactoferrin-derived 22-amino acid peptide]
Uptake (Table 2) [1]: High
biodistribution (main organ) ([2]; 111In-DOTA-labelled, 4 hours, FIG. 3A): predominantly located in the kidney
concentration in the blood after 4 hours [2]: < 1%
absorbed dose in kidney and liver combined of total dose in all the organs ([2]; 4 hours): more than 90%
distribution to other organs including intestines, skin and heart, fold lower ([2]; 4 hours): more than 20 fold
distribution to the liver, fold lower than kidney ([2]; 4 hours): approximately 2 fold
kidney targeting, female versus male mice ([2]; 4 hours): No significant differences
peptide concentration in spleen and lungs, fold lower than kidney ([2]; 4 hours): 5-10 fold
Uptake (Table 2) [4]: High
Uptake (Table 2) [5]: High
uptake in HeLa cells [6]: show uptake
co-localization with fluorescently-labelled transferrin [7]: co-localized completely
signal in spleen, heart, eyes, brain and lymph nodes ([8]; IVIS, LPS-treated and non-treated mice): virtually undetectable
tubular uptake of non-conjugated / free peptide ([8]; i.v. injection in mice): tubular uptake
Uptake (Table 2) [9]: High
dependence of uptake on HSPG [10]: depends on the presence of HSPG
binding to serum proteins as reason for preferential uptake by mGEnC [11]: not due to a difference in proteolytic breakdown of the peptides before uptake, or a difference in the binding to serum proteins
proteolytic breakdown as reason for preferential uptake by mGEnC ([11]; before uptake): not due to a difference in proteolytic breakdown
Uptake (Table 2) [12]: High
uptake in mGEnC [13]: much more efficient dose-dependent uptake
effect of TNFα treatment on uptake [14]: increased uptake
increase of uptake after TNFα treatment ([14]; 5 μM, FIG. 1E): 50-100%
Uptake (Table 2) [15]: High
decrease in uptake after removal of heparan sulphate [16]: ~ 20%

ITLN-1 expression after activation [17]: augmented ITLN-1 expression
Substance: TNFα

Substance: lactoferricin
bio-distribution [18]: accumulation predominantly in liver and spleen and less in kidney, brain and intestine
binding to proteoglycans [19]: bind to proteoglycans on endothelial and epithelial cells
